ChEMBL document CHEMBL4725351, “Cyclic Derivative of Host-Defense Peptide IDR-1018 Improves Proteolytic Stability, Suppresses Inflammation, and Enhances In Vivo Activity” (J Med Chem, 2020)
Calls of active or inactive are those of the source. The rule behind the calls is not given here.

Tests used:
[1] = tested on: Staphylococcus aureus; experiment: Antibacterial activity against methicillin-resistant Staphylococcus aureus SAP0017 measured after overnight incubation by microtitre plate based spectrophotometric method; type: functional
[2] = tested on: Staphylococcus aureus; experiment: Antibacterial activity against methicillin-resistant Staphylococcus aureus USA300 LAC measured after overnight incubation by microtitre plate based spectrophotometric method; type: functional
[3] = tested on: Pseudomonas aeruginosa; experiment: Antibacterial activity against Pseudomonas aeruginosa PA14 measured after overnight incubation by microtitre plate based spectrophotometric method; type: functional
[4] = tested on: Pseudomonas aeruginosa; experiment: Antibacterial activity against Pseudomonas aeruginosa PAO1 measured after overnight incubation by microtitre plate based spectrophotometric method; type: functional
[5] = tested on: Escherichia coli; experiment: Antibacterial activity against Escherichia coli ATTC 489 measured after overnight incubation by microtitre plate based spectrophotometric method; type: functional
[6] = tested on: Acinetobacter baumannii; experiment: Antibacterial activity against Acinetobacter baumannii 5015 measured after overnight incubation by microtitre plate based spectrophotometric method; type: functional
[7] = tested on: Acinetobacter baumannii; experiment: Antibacterial activity against Acinetobacter baumannii 17918 measured after overnight incubation by microtitre plate based spectrophotometric method; type: functional
[8] = tested on: Klebsiella pneumoniae; experiment: Antibacterial activity against Klebsiella pneumoniae ATTC 13883 measured after overnight incubation by microtitre plate based spectrophotometric method; type: functional
[9] = tested on: Staphylococcus aureus; experiment: Antibiofilm activity against methicillin-resistant Staphylococcus aureus USA300 LAC incubated for 24 hrs under shaking condition by turbidometric method; type: functional
[10] = tested on: Pseudomonas aeruginosa; experiment: Antibiofilm activity against Pseudomonas aeruginosa PA14 incubated for 24 hrs under shaking condition by turbidometric method; type: functional
[11] = tested on: Pseudomonas aeruginosa; experiment: Antibiofilm activity against Pseudomonas aeruginosa PAO1 incubated for 24 hrs under shaking condition by turbidometric method; type: functional
[12] = tested on: Escherichia coli; experiment: Antibiofilm activity against Escherichia coli ATTC 489 incubated for 24 hrs under shaking condition by turbidometric method; type: functional
[13] = tested on: Acinetobacter baumannii; experiment: Antibiofilm activity against Acinetobacter baumannii 5015 incubated for 24 hrs under shaking condition by turbidometric method; type: functional
[14] = tested on: Acinetobacter baumannii; experiment: Antibiofilm activity against Acinetobacter baumannii 17918 incubated for 24 hrs under shaking condition by turbidometric method; type: functional
[15] = tested on: Klebsiella pneumoniae; experiment: Antibiofilm activity against Klebsiella pneumoniae ATTC 13883 incubated for 24 hrs under shaking condition by turbidometric method; type: functional
[16] = tested on: Pseudomonas aeruginosa; experiment: Antibiofilm activity against 24 hrs preformed Pseudomonas aeruginosa PA14 biofilm assessed as reduction in biofilm viability at 7.2 to 30.3 uM by TTC assay relative to control; type: functional; conditions: dose microM 7.2-30.3
[17] = tested on: Pseudomonas aeruginosa; experiment: Antibiofilm activity against 24 hrs preformed Pseudomonas aeruginosa PAO1 biofilm assessed as reduction in biofilm viability at 7.2 to 30.3 uM by TTC assay relative to control; type: functional; conditions: dose microM 7.2-30.3
[18] = tested on: Escherichia coli; experiment: Antibiofilm activity against 24 hrs preformed Escherichia coli ATTC 489 biofilm assessed as reduction in biofilm viability at 7.2 to 30.3 uM by TTC assay relative to control; type: functional; conditions: dose microM 7.2-30.3
[19] = tested on: Acinetobacter baumannii; experiment: Antibiofilm activity against 24 hrs preformed Acinetobacter baumannii 5015 biofilm assessed as reduction in biofilm viability at 7.2 to 30.3 uM by TTC assay relative to control; type: functional; conditions: dose microM 7.2-30.3
[20] = tested on: Acinetobacter baumannii; experiment: Antibiofilm activity against 24 hrs preformed Acinetobacter baumannii 17918 biofilm assessed as reduction in biofilm viability at 7.2 to 30.3 uM by TTC assay relative to control; type: functional; conditions: dose microM 7.2-30.3
[21] = tested on: Klebsiella pneumoniae; experiment: Antibiofilm activity against 24 hrs preformed Klebsiella pneumoniae ATTC 13883 biofilm assessed as reduction in biofilm viability at 7.2 to 30.3 uM by TTC assay relative to control; type: functional; conditions: dose microM 7.2-30.3
[22] = target: T1, Trypsin (Homo sapiens, UniProt P07477+P07478+P35030); experiment: Stability of the compound in pH 8.2 ammonium bicarbonate buffer assessed as trypsin (unknown origin)-mediated compound cleavage at carboxy-terminal side of arginine at 20 ug/ml measured within 30 mins by RP-HPLC analysis; type: ADME, protein assay; conditions: pH 8.2, 0.5 h, at 20 µg/mL
[23] = target: T1, Trypsin; experiment: Stability of the compound in pH 8.2 ammonium bicarbonate buffer assessed as trypsin (unknown origin)-ILPWK formation at 20 ug/ml measured within 30 mins by MALDI-TOF analysis; type: ADME, protein assay; conditions: pH 8.2, 0.5 h, dose 20 µg/ml
[24] = target: T1, Trypsin; experiment: Stability of the compound in pH 8.2 ammonium bicarbonate buffer assessed as trypsin (unknown origin)-mediated drug degradation at 20 ug/ml measured up to 120 mins by MALDI-TOF analysis; type: ADME, protein assay; conditions: pH 8.2, 2 h, at 20 µg/mL
[25] = target: T1, Trypsin; experiment: Stability of the compound in pH 8.2 ammonium bicarbonate buffer assessed as trypsin (unknown origin)-mediated drug degradation at 20 ug/ml measured up to 120 mins by RP-HPLC analysis; type: ADME, protein assay; conditions: pH 8.2, 2 h, at 20 µg/mL
[26] = target: T1, Trypsin; experiment: Stability of the compound in pH 8.2 ammonium bicarbonate buffer assessed as trypsin (unknown origin)-mediated drug degradation at 20 ug/ml measured after 120 mins by RP-HPLC analysis; type: ADME, protein assay; conditions: buffer, pH 8.2, 2 h, at 20 µg/mL
[27] = Aggregation property of the compound in water at 1 mg/ml by turbidimetric method; type: physicochemical; conditions: buffer
[28] = Aggregation property of the compound in saline at 1 mg/ml by turbidimetric method; type: physicochemical; conditions: buffer
[29] = Aggregation property of the compound in 5% dextrose at 1 mg/ml by turbidimetric method; type: physicochemical
[30] = Aggregation property of the compound in RPMI medium with 1% FBS at 1 mg/ml by turbidimetric method; type: physicochemical
[31] = Aggregation property of the compound in sodium citrate solution at 10 mM by turbidimetric method; type: physicochemical; conditions: 10000 µM
[32] = Aggregation property of the compound in sodium phosphate solution at 10 mM by turbidimetric method; type: physicochemical; conditions: 10000 µM
[33] = Aggregation property of the compound in sodium nitrate solution at 10 mM by turbidimetric method; type: physicochemical; conditions: 10000 µM
[34] = Aggregation of the compound in human PBMC assessed as amorphous morphology at 50 ug/ml measured after 4 hrs by microscopic analysis; type: ADME, tissue-based; conditions: dose 50 µg/ml
[35] = Cytotoxicity against human PBMC assessed as reduction in cell viability at 100 ug/ml measured after 24 hrs by LDH assay; type: tissue-based; conditions: dose 100 µg/ml
[36] = tested on: PBMC; experiment: Immunomodulatory activity in human PBMC assessed as increase in MCP1 production at 25 ug/ml measured after overnight incubation by ELISA; type: functional, tissue-based; conditions: dose 25.0 µg/ml
[37] = tested on: PBMC; experiment: Immunomodulatory activity in human PBMC assessed as change in TNFalpha production at 25 ug/ml measured after overnight incubation by ELISA; type: functional, tissue-based; conditions: dose 25.0 µg/ml
[38] = tested on: PBMC; experiment: Immunomodulatory activity in human PBMC assessed as increase in IL-1RA production at 25 ug/ml measured after overnight incubation by ELISA; type: functional, tissue-based; conditions: dose 25.0 µg/ml
[39] = tested on: PBMC; experiment: Immunomodulatory activity in human PBMC assessed as reduction in LPS-induced TNFalpha production at 25 ug/ml measured after overnight incubation by ELISA; type: functional, tissue-based; conditions: dose 25.0 µg/ml
[40] = Immunomodulatory activity in human PBMC assessed as increase in LPS-induced MCP1 production at 25 ug/ml measured after overnight incubation by ELISA; type: functional; conditions: dose 25 µg/ml
[41] = tested on: PBMC; experiment: Immunomodulatory activity in human PBMC assessed as reduction in LPS-induced IL1beta production at 25 ug/ml measured after overnight incubation by ELISA; type: functional, tissue-based; conditions: dose 25.0 µg/ml
[42] = Toxicity in CD1 mouse assessed as precipitation under the skin at 10 mg/kg, sc measured after 16 hrs; type: organism-based; conditions: in vivo
[43] = tested on: Staphylococcus aureus; experiment: Antibacterial activity against Staphylococcus aureus USA300 LAC infected in CD1 mouse assessed as dermonecrosis area at 7.5 mg/kg, sc administered at infection site measured after 3 days by caliper method (Rvb > 75 mm2); type: functional; conditions: time 3 day

For H-VRLIVAVRIWRR-NH2, which MIC [1] is on record?
The MIC was 32.5 µM.

And the MIC [2]?
The MIC was 32.5 µM.

And the MIC [3]?
Its MIC is 32.5 µM.

What about the MIC [4] of the same substance?
Its MIC is 32.5 µM.

And the MIC [5]?
The MIC was 65.8 µM.

And the MIC [6]?
The MIC was 32.5 µM.

What about the MIC [7] of the same substance?
Its MIC is 32.5 µM.

And the MIC [8]?
The MIC was 16.2 µM.

What about the MBEC [9] of the same substance?
The MBEC was 7.8 µM.

What about the MBEC [10] of the same substance?
Its MBEC is 16.2 µM.

What about the MBEC [11] of the same substance?
The MBEC was 16.2 µM.

And the MBEC [12]?
Its MBEC is 10.4 µM.

What about the MBEC [13] of the same substance?
The MBEC was 16.2 µM.

And the MBEC [14]?
The MBEC was 16.2 µM.

And the MBEC [15]?
Its MBEC is 10.4 µM.

And the Activity [16]?
The Activity was 70%.

What about the Activity [17] of the same substance?
The Activity was 70%.

What about the Activity [18] of the same substance?
The Activity was 70%.

And the Activity [19]?
The Activity was 70%.

And the Activity [20]?
The Activity was 70%.

What about the Activity [21] of the same substance?
The Activity was 70%.

What about the Stabilty [22] of the same substance?
The Stabilty was “Unstable”.

What about the Drug metabolism [23] of the same substance?
The Drug metabolism was “Metabolite_Detected”.

And the Stabilty [24]?
Its Stabilty is “Stable”.

What about the Stabilty [25] of the same substance?
The Stabilty was “Stable”.

What about the Stabilty [26] of the same substance?
Its Stabilty is “Unstable”.

What about the Activity [27] of the same substance?
The Activity was “Not Active”.

What about the Activity [28] of the same substance?
Its Activity is “Not Active”.

What about the Activity [29] of the same substance?
The Activity was “Not Active”.

What about the Activity [30] of the same substance?
Its Activity is “Active”.

What about the Activity [31] of the same substance?
Its Activity is “Active”.

And the Activity [32]?
The Activity was “Active”.

What about the Activity [33] of the same substance?
The Activity was “Active”.

What about the Activity [34] of the same substance?
The Activity was “Active”.

And the Activity [35]?
The Activity was “Toxic”.

And the Activity [36]?
Its Activity is “Active”.

What about the Activity [37] of the same substance?
The Activity was “inactive”.

And the Activity [38]?
Its Activity is “Active”.

And the Activity [39]?
Its Activity is “Active”.

What about the Activity [40] of the same substance?
Its Activity is 35%.

What about the Activity [41] of the same substance?
The Activity was “Active”.

What about the Activity [42] of the same substance?
The Activity was “Toxic”.

What about the Activity [43] of the same substance?
The Activity was 30 mm2.
